Paper PMC3933693, “Novel Inhibitors of Mitochondrial sn-Glycerol 3-phosphate Dehydrogenase” (PLoS ONE, 2014)
Several values for one entry are separate records, joined by “and”; a condition that tells them apart may be missing. Equal entries are not always repeated.

Experiments:
[1] = system: cortical synaptosomes; assay: Synaptosomal respiration (Seahorse XF24); assay type: cell-based, mouse; conditions: 100 µM iGP-1, 0.5 mM aminooxyacetate
Procedure: Synaptosomal respiration was tested in the Seahorse XF24 using published protocols, [41]. Synaptosomes (20 or 25 µg protein) were attached to polyethyleneimine and Geltrex-coated Seahorse plates by centrifugation in ionic medium, [41] containing 10 mM glucose. Attachment buffer was carefully replaced with ionic buffer containing DMSO, 100 µM iGP-1, 0.5 mM aminooxyacetate, or iGP-1 with aminooxyacetate, and either 10 mM pyruvate or 15 mM glucose. Plates were equilibrated for 20 min at 37°C then loaded into the instrument followed by measurement of basal respiration and injection of 5 µM FCCP (to induce maximal, uncoupled respiration) with 4 µg ⋅ mL^−1 oligomycin (to prevent compensatory reversal of ATP synthase). In some experiments, 10 mM oxamate was added with the FCCP/oligomycin to minimize regeneration of cytosolic NAD^+ by lactate dehydrogenase. Inhibition of the malate-aspartate shuttle was defined as the difference between maximal rates ± aminooxyacetate, expressed as % of control. Inhibition of the glycerol phosphate shuttle was the difference between maximal rates with aminooxyacetate ± iGP-1, as % of control.

[2] = target: T1, mGPDH (Rattus norvegicus, UniProt P35571); assay: Superoxide/H2O2 production by mGPDH in isolated skeletal muscle mitochondria (Amplex UltraRed); assay type: biochemical
T1 construct: Activity of mGPDH in frozen-thawed skeletal muscle mitochondria was measured; from tissue; host or cells: skeletal muscle mitochondria
T1 sequence (P35571 43-727): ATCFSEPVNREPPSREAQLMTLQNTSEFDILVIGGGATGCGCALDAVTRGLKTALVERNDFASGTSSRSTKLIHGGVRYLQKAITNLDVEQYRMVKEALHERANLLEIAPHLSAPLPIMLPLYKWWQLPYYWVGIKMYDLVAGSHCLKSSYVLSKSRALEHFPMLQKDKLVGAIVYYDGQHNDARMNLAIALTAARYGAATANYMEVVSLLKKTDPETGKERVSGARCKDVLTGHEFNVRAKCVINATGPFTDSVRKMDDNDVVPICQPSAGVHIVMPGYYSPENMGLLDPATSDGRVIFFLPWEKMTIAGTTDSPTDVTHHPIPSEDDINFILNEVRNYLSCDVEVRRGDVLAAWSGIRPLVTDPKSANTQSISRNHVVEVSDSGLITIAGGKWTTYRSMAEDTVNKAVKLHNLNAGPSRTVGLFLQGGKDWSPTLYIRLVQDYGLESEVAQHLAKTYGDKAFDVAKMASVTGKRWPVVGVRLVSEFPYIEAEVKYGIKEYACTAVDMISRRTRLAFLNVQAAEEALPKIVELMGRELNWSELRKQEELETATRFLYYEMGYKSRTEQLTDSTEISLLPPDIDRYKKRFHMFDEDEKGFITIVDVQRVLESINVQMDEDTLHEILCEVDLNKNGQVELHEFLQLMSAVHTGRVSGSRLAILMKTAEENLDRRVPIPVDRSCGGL

[3] = system: skeletal muscle mitochondria; assay: Mitochondrial membrane potential (ΔΨm, TMRM) powered by glycerol phosphate; assay type: biochemical, rat; conditions: 16.7 mM glycerol phosphate
Procedure: (§1) Mitochondrial membrane potential (ΔΨm) was estimated fluorimetrically as described previously [33] on the Varian fluorimeter, except the potentiometric dye TMRM was used in quench-mode in place of safranine O [34]. […] The effect of putative small-molecule inhibitors was normalized as the % change in fluorescence between vehicle treatment and complete depolarization by the uncoupler carbonyl cyanide-4-(trifluoromethoxy)phenylhydrazone (FCCP, 2 µM) added at the end of each run. When indicated, the K^+/H^+ exchanger nigericin (80 ng ⋅ ml^−1) was added to collapse the pH gradient across the mitochondrial inner membrane (ΔpH) and maximize ΔΨm.
(§2) Additionally, four microplate assays for ΔΨm were run in parallel to the H2O2 assays. These assays were as described under “Measurement of mitochondrial H2O2 production and membrane potential” except that each substrate condition was assayed in a separate microplate. […] Plates were incubated in the dark at room temperature for 30–40 min (H2O2) or 10–15 min (ΔΨm) after the addition of substrate, and endpoint fluorescence was measured on the Victor plate reader. […] Endpoints for the ΔΨm assays were determined in pilot experiments as the times for TMRM accumulation to reach a steady state. At room temperature, this was typically ∼ 5 min and remained stable for at least 30 min. Endpoint fluorescence values were normalized as described in the previous section with wells containing FCCP serving as positive controls for the ΔΨm assays.

[4] = system: skeletal muscle mitochondria; assay: Mitochondrial membrane potential (ΔΨm, TMRM) powered by succinate; assay type: biochemical, rat; conditions: 2.5 mM; 5 mM succinate, rotenone, nigericin
Procedure: Mitochondrial membrane potential (ΔΨm) was estimated fluorimetrically as described previously on the Varian fluorimeter, except the potentiometric dye TMRM was used in quench-mode in place of safranine O [34]. […] The effect of putative small-molecule inhibitors was normalized as the % change in fluorescence between vehicle treatment and complete depolarization by the uncoupler carbonyl cyanide-4-(trifluoromethoxy)phenylhydrazone (FCCP, 2 µM) added at the end of each run. When indicated, the K^+/H^+ exchanger nigericin (80 ng ⋅ ml^−1) was added to collapse the pH gradient across the mitochondrial inner membrane (ΔpH) and maximize ΔΨm.
The assay buffer for both H2O2 and ΔΨm measurements was 120 mM KCl, 5 mM HEPES, 1 mM EGTA, 0.3% (w/v) BSA without or with 250 nM free calcium at pH 7.0. All assays were performed with stirring at 37°C.
Structure/activity analysis was performed on 18 structural analogs of two structurally-related hits from the primary screen (iGP-1 and iGP-2). These 20 compounds were tested in duplicate at 0.08–80 µM (0.1% DMSO final) in microplate format for effects on site-specific H2O2 production as described above. Additionally, four microplate assays for ΔΨm were run in parallel to the H2O2 assays. These assays were as described under “Measurement of mitochondrial H2O2 production and membrane potential” except that each substrate condition was assayed in a separate microplate. […] Plates were incubated in the dark at room temperature for 30–40 min (H2O2) or 10–15 min (ΔΨm) after the addition of substrate, and endpoint fluorescence was measured on the Victor plate reader. Endpoints were chosen for the H2O2 assays to provide good signal-to-noise ratios and linear rates of change without the indicator dye limiting the reaction. Endpoints for the ΔΨm assays were determined in pilot experiments as the times for TMRM accumulation to reach a steady state. […] Endpoint fluorescence values were normalized as described in the previous section with wells containing FCCP serving as positive controls for the ΔΨm assays.

[5] = target: T2, flavin site of complex II (site IIF) (Rattus norvegicus, UniProt Q920L2); assay: Site-specific H2O2 production from site IIF in skeletal muscle mitochondria; assay type: biochemical; conditions: 0.5 mM succinate, rotenone, myxothiazol, antimycin A; Fig. 2B
T2 construct: from tissue; host or cells: skeletal muscle mitochondria
T2 sequence (Q920L2 35-656): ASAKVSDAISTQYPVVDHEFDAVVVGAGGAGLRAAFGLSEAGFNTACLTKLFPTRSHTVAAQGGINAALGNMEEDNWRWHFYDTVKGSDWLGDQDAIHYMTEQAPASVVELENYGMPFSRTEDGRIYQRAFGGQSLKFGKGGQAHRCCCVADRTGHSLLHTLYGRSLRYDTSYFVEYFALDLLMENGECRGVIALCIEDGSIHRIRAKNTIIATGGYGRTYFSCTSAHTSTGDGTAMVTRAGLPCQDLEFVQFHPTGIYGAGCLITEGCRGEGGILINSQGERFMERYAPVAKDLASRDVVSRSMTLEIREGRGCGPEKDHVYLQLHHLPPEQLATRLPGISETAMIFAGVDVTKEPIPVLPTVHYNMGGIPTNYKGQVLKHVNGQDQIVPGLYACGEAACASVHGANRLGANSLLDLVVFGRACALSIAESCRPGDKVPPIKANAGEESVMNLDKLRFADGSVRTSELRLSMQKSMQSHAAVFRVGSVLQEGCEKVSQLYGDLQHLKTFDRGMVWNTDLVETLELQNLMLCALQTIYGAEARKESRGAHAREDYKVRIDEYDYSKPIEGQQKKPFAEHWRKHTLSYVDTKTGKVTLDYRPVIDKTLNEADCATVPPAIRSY
T2 sequence (P21913 31-282 partner): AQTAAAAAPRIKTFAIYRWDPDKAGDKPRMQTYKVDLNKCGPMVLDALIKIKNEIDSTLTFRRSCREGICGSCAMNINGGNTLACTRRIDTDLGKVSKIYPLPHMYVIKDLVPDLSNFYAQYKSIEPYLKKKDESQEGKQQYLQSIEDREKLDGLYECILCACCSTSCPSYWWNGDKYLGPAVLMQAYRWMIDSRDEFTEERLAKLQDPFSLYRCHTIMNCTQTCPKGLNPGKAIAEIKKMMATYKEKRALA
T2 sequence (Q641Z9 30-169 partner limits assumed): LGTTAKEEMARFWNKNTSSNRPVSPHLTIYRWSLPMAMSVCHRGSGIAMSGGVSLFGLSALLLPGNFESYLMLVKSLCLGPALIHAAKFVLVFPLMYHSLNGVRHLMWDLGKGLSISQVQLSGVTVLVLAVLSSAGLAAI
T2 sequence (Q6PCT8 57-159 partner): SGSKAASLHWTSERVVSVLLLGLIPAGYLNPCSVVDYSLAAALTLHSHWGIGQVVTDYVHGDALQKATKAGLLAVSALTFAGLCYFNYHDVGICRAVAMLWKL
Summary of the method: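 Isolated rat skeletal muscle mitochondria; H2O2 read by Amplex UltraRed with added SOD and HRP. Site IF/DH: 5 mM glutamate, 5 mM malate, 4 µM rotenone. Site IIF: palmitoylcarnitine or succinate with rotenone/antimycin A/myxothiazol. Site IIIQo: succinate, rotenone, antimycin A. Screen at 2.5 µM, normalised as % change from DMSO.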

[6] = system: ubiquinone-binding site of complex I (site IQ); assay: Site-specific H2O2 production from site IQ in skeletal muscle mitochondria; assay type: biochemical, rat; conditions: 80 μM; 5 mM succinate;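 further: H2O2 from superoxide detected by Amplex UltraRed fluorescence with added superoxide dismutase and horseradish peroxidase, endpoint read 30–40 min after substrate addition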
[7] = system: skeletal muscle mitochondria; assay: Mitochondrial respiration (Seahorse XF24) in plate-attached skeletal muscle mitochondria; assay type: biochemical, rat
Procedure: The effects of small-molecule inhibitors on respiration were tested in plate-attached skeletal muscle mitochondria using a Seahorse XF24 Analyzer according to published protocols. Briefly, mitochondria (2 or 4 µg protein) were attached to Seahorse assay plates by centrifugation in a mannitol and sucrose-based medium (Seahorse MAS buffer) containing 0.3% (w/v) BSA without or with 250 nM free calcium at pH 7.0. […] Compounds were added in these media just prior to loading the assay plate into the Seahorse instrument. Additions were made to set respiration in basal state 2 (substrate only), phosphorylating state 3 (5 mM ADP), non-phosphorylating state 4o (0.5 ug ⋅ mL^−1 oligomycin), and to reveal the non-mitochondrial rate (2 µM myxothiazol and 2.5 µM antimycin A). Each concentration of compound was tested in at least two wells on each plate. At least three biological replicates of each titration in each substrate condition were performed.

[8] = system: skeletal muscle mitochondria; assay: Mitochondrial membrane potential (ΔΨm, TMRM) powered by glutamate plus malate; assay type: biochemical, rat
Procedure: as §1, §2

[9] = target: T1, mGPDH; assay: mGPDH enzymatic activity (DCPIP-linked reduction by glycerol phosphate) in frozen-thawed skeletal muscle mitochondria; assay type: biochemical
Procedure: Activity of mGPDH in frozen-thawed skeletal muscle mitochondria was measured as 2,6-dichlorophenolindophenol (DCPIP)-linked reduction by glycerol phosphate as described previously in the presence of 1 µM free calcium. Linear rates of change in absorbance (λ = 600 nm) were measured on the PHERAstar microplate reader and converted to rates of DCPIP reduction using an extinction coefficient of 21 mM^−1 ⋅ cm^−1 and a calculated pathlength of 0.6 cm. Kinetic parameters and inhibitor constants were determined by co-varying glycerol phosphate and novel inhibitors according to recommended procedures and calculated for each data set using GraphPad Prism. Vmax and Km were determined using hyperbolic curves fit to the Michaelis-Menten equation: rate = (Vmax ⋅ [substrate]) ⋅ (K m+[substrate])^ −1. Hill Slope and IC50 were determined using unconstrained, sigmoidal dose-response curve fits of % remaining activity against concentration of iGP. K ic and K iu were determined using plots of rate^−1 vs iGP and GP ⋅ rate^−1 vs iGP, respectively. Linear regression analysis yielded an average x-coordinate at which the best-fit lines intersect. These x-coordinates correspond to -K ic and -K iu in their respective plots. The apparent Vmax of mGPDH is dependent upon the concentration of DCPIP used, [38]. Therefore, to determine the maximal activity of mGPDH in isolated synaptosomes, DCPIP was replaced by 1 mM potassium ferricyanide and linear rates of change in absorbance (λ = 420 nm) were converted to rates of ferricyanide reduction using an extinction coefficient of 1.04 mM^−1 ⋅ cm^−1 and a calculated pathlength of 0.6 cm.

NOCC(=O)O [aminooxyacetate, reference compound]
effect on basal or maximal respiration with pyruvate ([1]; 10 mM pyruvate): no effect | effect on basal and maximal respiration with glucose ([1]; 15 mM glucose, no oxamate): inhibited

O=CC(O)COP(=O)(O)O (stereo not shown) [glyceraldehyde 3-phosphate, reference compound]
inhibition at 2500 µM ([2]; 2.5 mM, 1.7 mM glycerol phosphate, 250 nM free calcium, read-out: inhibition of the rate of H2O2 production from mGPDH): ~80% | effect on ΔΨm powered by glycerol phosphate ([3]; all concentrations tested, rotenone, atpenin A5, nigericin): significantly decreased | effect on ΔΨm powered by succinate [4]: significantly increased | effect on the rate of H2O2 production from site IIF [5]: significantly inhibited

O=C(O)CCC(=O)Nc1ccc(-c2nc3cc4ccccc4cc3[nH]2)cc1 [iGP-5]
IQ H2O2 production with 5 mM Suc (% change at 80 μM) [6]: -9% | IC50 ([2]; Fig. 4 structure/activity microplate assay, 0.08–80 µM, estimated, means of two replicates, read-out: mGPDH H2O2 production IC50): 700 nM | IC50 ([2]; Fig. 9B, read-out: mGPDH H2O2 Production IC50): 1000 ± 100 nM | inhibition at 80 µM ([2]; read-out: mGPDH H2O2 production (% change at 80 μM)): 65% | IC50 ([2]; titration up to 80 µM (Fig. 6B, Fig. 7B), read-out: half-maximal effect on H2O2 production by mGPDH): ~1000 nM | ΔΨm with GP + Nig (% change at 80 μM) ([3]; 80 μM, 4 µM rotenone, nigericin): -26% | effect on ΔΨm powered by glycerol phosphate ([3]; 2.5 and 25 µM): significantly decreased | effect on state 3 respiration with pyruvate and malate ([7]; 80 µM): significantly reduced | effect on glycerol phosphate-dependent state 3 respiration ([7]; 25 and 80 µM): significantly decreased | effect on ΔΨm powered by glutamate and malate ([8]; 25 µM, only in the absence of nigericin): significantly increased | ΔΨm with Glu + Mal + Nig (% change at 80 μM) ([8]; 80 μM, 5 mM glutamate, 5 mM malate, with nigericin): 20% | ΔΨm with Glu + Mal (% change at 80 μM) ([8]; 80 μM, 5 mM glutamate, 5 mM malate, without nigericin): 106% | mGPDH Activity Hill Slope ([9]; 1 µM free calcium): 0.85 and 0.85±0.07 | IC50 ([9]; 1 µM free calcium, Fig. 9A): 1000 ± 200 nM | K iu (uncompetitive inhibitor dissociation constant) ([9]; co-varying glycerol phosphate and inhibitor): 1.1 ± 0.0 µM | Ki ([9]; co-varying glycerol phosphate and inhibitor, read-out: K ic (competitive inhibitor dissociation constant)): 700 nM
